In brackets after ≈: the same amount, converted by molar mass. Activity calls are given as the source filed them. The rule behind the calls is not given here.
Tests used:
[1] = system: Mycobacterium tuberculosis; experiment: Antitubercular activity against Mycobacterium tuberculosis H37Ra ATCC 25177 incubated for 40 mins by XTT Reduction Menadione Assay; type: functional; conditions: H37Ra ATCC 25177, 40 min
[2] = Antitubercular activity against Mycobacterium bovis BCG ATCC 35743 incubated for 40 mins by XTT Reduction Menadione Assay; type: functional, Mycobacterium bovis BCG str. ATCC 35743; conditions: Mycobacterium tuberculosis variant bovis BCG, ATCC 35743, 40 min
[3] = system: Mycobacterium tuberculosis; experiment: Antitubercular activity against active Mycobacterium tuberculosis H37Ra ATCC 25177 incubated for 40 mins by XTT Reduction Menadione Assay; type: functional; conditions: H37Ra ATCC 25177, 40 min
[4] = system: Mycobacterium bovis BCG str. ATCC 35743; experiment: Antitubercular activity against dormant Mycobacterium bovis BCG ATCC 35743 at 3 ug/ml incubated for 40 mins by XTT Reduction Menadione Assay; type: functional
[5] = system: Cryptococcus neoformans; experiment: Antifungal activity against Cryptococcus neoformans NCIM 576 after 48 hrs by agar cup plate method; type: functional; conditions: NCIM 576, 48 h
[6] = system: Mycobacterium tuberculosis; experiment: Antitubercular activity against Mycobacterium tuberculosis H37Ra ATCC 25177 at 30 ug/ml incubated for 40 mins by XTT Reduction Menadione Assay; type: functional; conditions: H37Ra ATCC 25177, 40 min, read-out: GI
[7] = system: Aspergillus niger; experiment: Antifungal activity against Aspergillus niger NCIM 1196 after 48 hrs by agar cup plate method; type: functional; conditions: NCIM 1196, 48 h
[8] = Cytotoxicity against human PANC1 cells after 48 hrs by MTT assay; type: cell-based, PANC-1; conditions: for GI50 at 48 h: PANC1 cells; for GI90: panc-1, 48 h
[9] = system: Mycobacterium bovis BCG str. ATCC 35743; experiment: Antitubercular activity against dormant Mycobacterium bovis BCG ATCC 35743 at 10 ug/ml incubated for 40 mins by XTT Reduction Menadione Assay; type: functional
[10] = system: Mycobacterium bovis BCG str. ATCC 35743; experiment: Antitubercular activity against dormant Mycobacterium bovis BCG ATCC 35743 incubated for 40 mins by XTT Reduction Menadione Assay; type: functional
[11] = system: A549; experiment: (§1) Cytotoxicity against human A549 cells after 48 hrs by MTT assay; type: cell-based; conditions: a549, 48 h
[12] = as §1; type: cell-based; conditions: A549 cells
[13] = Cytotoxicity against human THP1 cells after 48 hrs by MTT assay; type: cell-based, THP-1; conditions: for GI50 at 48 h: THP1 cells; for GI90: thp-1, 48 h
[14] = system: Mycobacterium bovis BCG str. ATCC 35743; experiment: Antitubercular activity against dormant Mycobacterium bovis BCG ATCC 35743 at 30 ug/ml incubated for 40 mins by XTT Reduction Menadione Assay; type: functional
[15] = system: Mycobacterium tuberculosis; experiment: Antitubercular activity against Mycobacterium tuberculosis H37Ra ATCC 25177 at 10 ug/ml incubated for 40 mins by XTT Reduction Menadione Assay; type: functional; conditions: H37Ra ATCC 25177, 40 min, read-out: GI
[16] = system: HeLa; experiment: (§2) Cytotoxicity against human HeLa cells after 48 hrs by MTT assay; type: cell-based; conditions: hela, 48 h
[17] = as §2; type: cell-based; conditions: HeLa cells
[18] = system: Candida albicans; experiment: Antifungal activity against Candida albicans NCIM 3471 after 48 hrs by agar cup plate method; type: functional; conditions: NCIM 3471, 48 h
[19] = system: Mycobacterium tuberculosis; experiment: Antitubercular activity against Mycobacterium tuberculosis H37Ra ATCC 25177 at 3 ug/ml incubated for 40 mins by XTT Reduction Menadione Assay; type: functional; conditions: H37Ra ATCC 25177, 40 min, read-out: GI
[20] = system: Fusarium oxysporum; experiment: Antifungal activity against Fusarium oxysporum NCIM 1332 after 48 hrs by agar cup plate method; type: functional; conditions: NCIM 1332, 48 h
[21] = system: Mycobacterium tuberculosis; experiment: Antitubercular activity against dormant Mycobacterium tuberculosis H37Ra ATCC 25177 incubated for 40 mins by XTT Reduction Menadione Assay; type: functional; conditions: H37Ra ATCC 25177, 40 min
[22] = system: Aspergillus flavus; experiment: Antifungal activity against Aspergillus flavus NCIM 539 after 48 hrs by agar cup plate method; type: functional; conditions: NCIM 539, 48 h
[23] = system: Cryptococcus neoformans; experiment: Antifungal activity against Cryptococcus neoformans NCIM 576 up to 200 ug/ml after 48 hrs by agar cup plate method; type: functional, organism-based
[24] = system: Escherichia coli; experiment: Antibacterial activity against Escherichia coli after 18 hrs by broth dilution method; type: functional
[25] = system: Pseudomonas fluorescens; experiment: Antibacterial activity against Pseudomonas fluorescens after 18 hrs by broth dilution method; type: functional
[26] = system: Bacillus subtilis; experiment: Antibacterial activity against Bacillus subtilis after 18 hrs by broth dilution method; type: functional
[27] = system: Staphylococcus aureus; experiment: Antibacterial activity against Staphylococcus aureus after 18 hrs by broth dilution method; type: functional
[28] = Selectivity index, ratio of GI50 for human A549 cells to MIC for Mycobacterium bovis BCG ATCC 35743; type: toxicity, cell-based; conditions: read-out: Selectivity Index
[29] = Selectivity index, ratio of GI50 for human HeLa cells to MIC for Mycobacterium tuberculosis H37Ra ATCC 25177; type: toxicity, cell-based; conditions: read-out: Selectivity Index
[30] = system: Mycobacterium bovis BCG str. ATCC 35743; experiment: Antitubercular activity against active Mycobacterium bovis BCG ATCC 35743 incubated for 40 mins by XTT Reduction Menadione Assay; type: functional
[31] = Selectivity index, ratio of GI50 for human PANC1 cells to MIC for Mycobacterium tuberculosis H37Ra ATCC 25177; type: toxicity, cell-based, PANC-1; conditions: read-out: Selectivity Index
[32] = Selectivity index, ratio of GI50 for human THP1 cells to MIC for Mycobacterium tuberculosis H37Ra ATCC 25177; type: toxicity, cell-based, THP-1; conditions: read-out: Selectivity Index
[33] = Selectivity index, ratio of GI50 for human A549 cells to MIC for Mycobacterium tuberculosis H37Ra ATCC 25177; type: toxicity, cell-based; conditions: read-out: Selectivity Index
[34] = Selectivity index, ratio of GI50 for human HeLa cells to MIC for Mycobacterium bovis BCG ATCC 35743; type: toxicity, cell-based; conditions: read-out: Selectivity Index
[35] = Selectivity index, ratio of GI50 for human PANC1 cells to MIC for Mycobacterium bovis BCG ATCC 35743; type: toxicity, cell-based, PANC-1; conditions: read-out: Selectivity Index
[36] = Selectivity index, ratio of GI50 for human THP1 cells to MIC for Mycobacterium bovis BCG ATCC 35743; type: toxicity, cell-based, THP-1; conditions: read-out: Selectivity Index
[37] = system: Fusarium oxysporum; experiment: Antifungal activity against Fusarium oxysporum NCIM 1332 up to 200 ug/ml after 48 hrs by agar cup plate method; type: functional, organism-based

Compound	MIC [1] [µg/mL]	MIC [2] [µg/mL]	IC90 [3] [µg/mL]	growth inhibition (GI) [4] [%]	MIC [5] [µg/mL]	inhibition of growth at 30 µg/mL [6] [%]	MIC [7] [µg/mL]	GI50 at 48 h [8] [µg/mL]	GI90 [8] [µg/mL]	growth inhibition (GI) [9] [%]	GI50 at 48 h [12] [µg/mL]	GI50 at 48 h [13] [µg/mL]	growth inhibition (GI) [14] [%]	inhibition of growth at 10 µg/mL [15] [%]	GI50 at 48 h [17] [µg/mL]	MIC [18] [µg/mL]	inhibition of growth at 3 µg/mL [19] [%]	MIC [20] [µg/mL]	IC90 [21] [µg/mL]	MIC [22] [µg/mL]	further results
Cc1ccc2cc(/C=C3\SC(=S)N(CC(=O)O)C3=O)c3nnnn3c2c1	159 (≈ 413 µM)	24.2 (≈ 62.7 µM)	> 250	-4.5	150 (≈ 389 µM)	65	150 (≈ 389 µM)	> 100	> 100	19.2	> 100	> 100	50.6	49.2	> 100	75 (≈ 195 µM)	31.7	100 (≈ 259 µM)	159 (≈ 413 µM)	50 (≈ 130 µM)	IC90 [10]: 24.2 µg/mL (≈ 62.7 µM); GI90 [11]: > 100 µg/mL; GI90 [13]: > 100 µg/mL; GI90 [16]: > 100 µg/mL
COc1ccc2cc(/C=C3\SC(=S)NC3=O)c3nnnn3c2c1	> 250	> 250		-3.47		14.1	25 (≈ 72.8 µM)			-1.87			3.63	15.6		150 (≈ 437 µM)	1.97	100 (≈ 291 µM)		100 (≈ 291 µM)	MIC [23]: inactive; MIC [24]: 102 µg/mL (≈ 298 µM); MIC [25]: 157 µg/mL (≈ 457 µM); MIC [26]: 246 µg/mL (≈ 716 µM); MIC [27]: 247 µg/mL (≈ 721 µM)
Cc1ccc2cc(/C=C3\SC(=S)NC3=O)c3nnnn3c2c1	4.5 (≈ 13.7 µM)	2.01 (≈ 6.14 µM)	5.5 (≈ 16.8 µM)	100	100 (≈ 305 µM)	98	100 (≈ 305 µM)	> 100	> 100	100	> 100	> 100	97.8	99.7	> 100	150 (≈ 458 µM)	82.9	150 (≈ 458 µM)	4.5 (≈ 13.7 µM)	125 (≈ 382 µM)	selectivity ratio [28]: 49.8; selectivity ratio [29]: 22.2; MIC [24]: 208 µg/mL (≈ 636 µM); IC90 [30]: 2.25 µg/mL (≈ 6.87 µM); IC90 [10]: 2.01 µg/mL (≈ 6.14 µM); GI90 [11]: > 100 µg/mL; selectivity ratio [31]: 22.2; selectivity ratio [32]: 22.2; GI90 [13]: > 100 µg/mL; selectivity ratio [33]: 22.2; MIC [25]: 211 µg/mL (≈ 643 µM); selectivity ratio [34]: 49.8; MIC [26]: 188 µg/mL (≈ 574 µM); selectivity ratio [35]: 49.8; GI90 [16]: > 100 µg/mL; selectivity ratio [36]: 49.8; MIC [27]: 205 µg/mL (≈ 626 µM)
CO[C@H]1/C=C/O[C@@]2(C)Oc3c(C)c(O)c4c(O)c(c(/C=N/N5CCN(C)CC5)c(O)c4c3C2=O)NC(=O)/C(C)=C\C=C\[C@H](C)[C@H](O)[C@@H](C)[C@@H](O)[C@@H](C)[C@H](OC(C)=O)[C@@H]1C [RIFAMPIN]	0.72 (≈ 0.875 µM)	0.89 (≈ 1.08 µM)	0.05 (≈ 0.0608 µM)					> 100			> 100	> 100			> 100				0.72 (≈ 0.875 µM)		selectivity ratio [28]: > 112; selectivity ratio [29]: > 139; IC90 [30]: 0.061 µg/mL (≈ 0.0741 µM); IC90 [10]: 0.89 µg/mL (≈ 1.08 µM); selectivity ratio [31]: > 139; selectivity ratio [32]: > 139; selectivity ratio [33]: > 139; selectivity ratio [34]: > 112; selectivity ratio [35]: > 112; selectivity ratio [36]: > 112
COc1ccc2c(c1)cc(/C=C1\SC(=S)NC1=O)c1nnnn12	> 250	> 250		12.5	150 (≈ 437 µM)	-5.72	100 (≈ 291 µM)			17.1			32.5	17.6		150 (≈ 437 µM)	18.9			150 (≈ 437 µM)	MIC [24]: 198 µg/mL (≈ 577 µM); MIC [37]: inactive; MIC [25]: 169 µg/mL (≈ 493 µM); MIC [26]: 96.8 µg/mL (≈ 282 µM); MIC [27]: 144 µg/mL (≈ 419 µM)
COc1ccc2cc(/C=C3\SC(=S)N(CC(=O)O)C3=O)c3nnnn3c2c1	92.3 (≈ 230 µM)	121 (≈ 302 µM)	159 (≈ 396 µM)	12.7	175 (≈ 436 µM)	97.2	150 (≈ 374 µM)	> 100	> 100	37.3	> 100	> 100	25.6	13.6	> 100	100 (≈ 249 µM)	3.59		92.3 (≈ 230 µM)	150 (≈ 374 µM)	selectivity ratio [28]: 4.13; selectivity ratio [29]: 1.1; MIC [37]: inactive; GI90 [11]: > 100 µg/mL; selectivity ratio [31]: 1.1; selectivity ratio [32]: 1.1; GI90 [13]: > 100 µg/mL; selectivity ratio [33]: 1.1; selectivity ratio [34]: 4.13; selectivity ratio [35]: 4.13; GI90 [16]: > 100 µg/mL; selectivity ratio [36]: 4.13
Cc1ccc2cc(/C=C3\SC(=S)N(CCC(=O)O)C3=O)c3nnnn3c2c1	42.2 (≈ 106 µM)	45.4 (≈ 114 µM)	45 (≈ 113 µM)	4.55	50 (≈ 125 µM)	60.3	100 (≈ 250 µM)	> 100	> 100	12.3	> 100	> 100	41.2	30	> 100	25 (≈ 62.6 µM)	16.6	50 (≈ 125 µM)	42.2 (≈ 106 µM)	50 (≈ 125 µM)	IC90 [10]: 45.4 µg/mL (≈ 114 µM); GI90 [11]: > 100 µg/mL; GI90 [13]: > 100 µg/mL; GI90 [16]: > 100 µg/mL
COc1ccc2c(c1)cc(/C=C1\SC(=S)N(CCC(=O)O)C1=O)c1nnnn12	> 250	> 250		8.94		15.9	150 (≈ 361 µM)			16			23.9	27.9		150 (≈ 361 µM)	-0.42	125 (≈ 301 µM)		150 (≈ 361 µM)	MIC [23]: inactive

— ChEMBL document CHEMBL3792317, “Novel tetrazoloquinoline-rhodanine conjugates: Highly efficient synthesis and biological evaluation” (Bioorg Med Chem Lett, 2016)
